The data set is described as follows: Solubility of risperidone in ethylene vinyl acetate copolymer. The settings on record: ethylene vinyl acetate copolymer having a vinyl acetate content of 28%. Format: physicochemical. The method, then:
With risperidone is meant 3-[2-[4-(6-fluoro-1,2-benzisoxazol-3-yl)-1-piperidinyl]ethyl]-6,7,8,9-tetrahydro-2-methyl-4H-pyrido[1,2-a]pyrimidin-4-one. […] Solubility is measured as described in Laarhoven, J. A. H., et al. (2002), International Journal of Pharmaceutics 232, page 165.

Regarding `Cc1nc2n(c(=O)c1CCN1CCC(c3noc4cc(F)ccc34)CC1)CCCC2` [Risperidone, 3-[2-[4-(6-fluoro-1,2-benzisoxazol-3-yl)-1-piperidinyl]ethyl]-6,7,8,9-tetrahydro-2-methyl-4H-pyrido[1,2-a]pyrimidin-4-one], the “solubility in ethylene vinyl acetate copolymer” value came to 0.1 wt %.

For the origin of these results see patent US20100203104A1, “DELIVERY SYSTEM FOR RISPERIDONE” (N.V. Organon, priority 2006, published 2010).
